Drawing on US20100056791A1, “Pyrazolopyridine carboxamide derivative and phosphodiesterase (pde) inhibitor containing the same” (priority 2006, published 2010), this text covers IC50 and inhibition in vivo for 24 compounds.

The target in assay [1] is T1, PDE4B catalytic domain (PDE4Bcat) (Homo sapiens, UniProt Q07343).
T1 construct: The cDNA of PDE4B catalytic domain (hereinafter abbreviated as Cat) was isolated from human RNA by RT-PCR; made in house; host or cells: Sf9 insect cells (baculovirus, Gateway / Bac-to-Bac)
Put plainly: Phosphodiesterase inhibitory activity ([3H]cAMP breakdown, recombinant PDE4Bcat). The format is biochemical. The note with it: 30° C. 20 minutes, read-out: IC50(μmol/L) PDE4. An excerpt: The cDNA of PDE4B catalytic domain (hereinafter abbreviated as Cat) was isolated from human RNA by RT-PCR. The isolated cDNA fragments were inserted into Sf9 insect cells using Gateway system (product of Invitrogen Corporation) and Bac-to-Bac (registered trademark) Baculovirus Expression system (product of Invitrogen Corporation) to express a target PDE protein. The recombinant PDE4Bcat was purified from the culture supernatants or cell extracts of Sf9 cells expressing high levels of the PDE protein by ion exchange chromatography and was used for the following experiments.
A 4 mmol/L solution of each test compound was serially diluted four-fold with a 15% DMSO solution to prepare solutions with concentrations of 15 nmol/L to 4 mmol/L (the final concentrations used in the experiments were 1.5 nmol/L to 400 μmol/L). 10 μL of the prepared test compound solutions, [3H] cAMP diluted with a buffer solution (40 mmol/L Tris-HCl (pH: 7.4), 10 mmol/L MgCl2), and 40 μL of the recombinant human PDE protein (2×10^−6 units, 1 unit is defined as the amount of PDE that breaks down 1 μmol/L of cAMP in one minute under the conditions of a pH of 7.5 and 30° C.) were added to a 96-well plate. The mixtures were reacted at 30° C. for 20 minutes. Then, the resultant mixtures were reacted at 65° C. for 2 minutes. Subsequently, 25 μL of 1 mg/mL5′-nucleotidase (Crotalus atrox venom, product of Sigma) was added to the mixtures, and the mixtures were reacted at 30° C. for 10 minutes. After completion of the reaction, 200 μL of a solution of Dowex (300 mg/mL Dowex 1×8-400 (product of Sigma Aldrich), 33% ethanol) was added to the mixtures, and the mixtures were shaken at 4° C. for 20 minutes. Subsequently, 200 μL of MicroScint 20 (product of Packard) was added to the mixtures, and measurement was performed using a scintillation counter (Topcount, product of Packard). IC50 values were calculated using Graph Pad Prism v3.03 (product of GraphPad Software). When […], the results were represented by “+.” When 0.1 μmol/L>the IC50 value, the results were represented by “++.”

For assay [2], the system named is histamine-induced bronchoconstriction. Kind of assay: Histamine-induced airway contraction reaction in guinea pigs. The format is in vivo. The note with it: Cavia porcellus, iv, 0.5 min, i.v., 30 seconds after administration, read-out: Inhibition ratio; for inhibition in vivo at 0.3 mg/kg: 0.3 mg/kg administration (results in brackets); for inhibition in vivo at 0.1 mg/kg: 0.1 mg/kg administration (not in brackets). The procedure:
Guinea pigs were anesthetized with pentobarbital (30 mg/kg, i.p.). A cannula for intravenous administration, a cannula for collecting blood and measuring blood pressure, and a tracheal cannula were inserted into the left external jugular vein, right internal carotid artery, and trachea, respectively. The guinea pigs were maintained on artificial respiration under the conditions of 60 times/min and 10 mL/kg/stroke. The airflow from the side branch of the tracheal cannula was measured by a bronchospasm transducer (Ugo-Basile) and recorded on a computer via Power Lab (ADInstruments Japan). The guinea pigs were immobilized with gallamine (10 mg/kg, i.v.), and histamine was administered at 10-minute intervals (12.5 μg/kg, i.v.). […] We examined the inhibitory action of test compounds on histamine-induced bronchoconstriction 30 seconds after compounds administration. Bronchoconstriction was recorded as the amount of airflow, and the results were represented by the ratio of the maximum value of the histamine-induced airflow 30 seconds after the administration to the maximum value of the airflow before the administration. When the inhibition ratio≧90%, the results were represented by “+++.” When 90%>the inhibition ratio≧70%, the results were represented by “++.” When 70%>the inhibition ratio≧30%, the results were represented by “+.” The results shown in brackets are for 0.3 mg/kg administration, and the other results are for 0.1 mg/kg administration.

Some results are limits rather than exact numbers.

T1 sequence (Q07343 330-659 limits assumed): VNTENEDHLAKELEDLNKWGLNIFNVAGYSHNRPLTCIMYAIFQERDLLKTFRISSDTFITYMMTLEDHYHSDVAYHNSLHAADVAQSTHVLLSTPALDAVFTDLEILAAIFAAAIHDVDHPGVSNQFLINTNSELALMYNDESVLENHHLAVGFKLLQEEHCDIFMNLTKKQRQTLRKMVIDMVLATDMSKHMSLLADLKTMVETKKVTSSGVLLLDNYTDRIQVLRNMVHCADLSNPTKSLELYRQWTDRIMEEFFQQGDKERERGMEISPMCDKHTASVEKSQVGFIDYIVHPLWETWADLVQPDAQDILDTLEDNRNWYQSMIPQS

For `COc1ccc(C(=O)Nc2c(Cl)cncc2Cl)c2ccnn12` [Example 40, 7-Methoxypyrazolo[1,5-a]pyridine-4-carboxylic acid (3,5-dichloropyridin-4-yl)amide], the IC50 in assay [1] was less than 0.1 µmol/L. Moreover, the inhibition in vivo at 0.3 mg/kg in assay [2] fell in the range of 70 to 90%.

On to `COc1ccc(C(=O)Nc2c(Cl)cncc2Cl)c2cc(C(C)O)nn12` (centres unmarked) [Example 79, 2-(1-Hydroxyethyl)-7-methoxypyrazolo[1,5-a]pyridine-4-carboxyl ic acid (3,5-dichloropyridin-4-yl)amide], for which, in assay [1], the IC50 was less than 0.1 µmol/L. Moreover, the inhibition in vivo at 0.1 mg/kg in assay [2] is 30 to 70%. Consider `COc1ccc(C(=O)Nc2c(Cl)cncc2Cl)c2cc(C(F)F)nn12` [Example 58, 2-Difluoromethyl-7-methoxy-pyrazolo[1,5-a]pyridine-4-carboxylic acid (3,5-dichloropyridin-4-yl)amide], for which the IC50 in assay [1] is less than 0.1 µmol/L. The inhibition in vivo at 0.1 mg/kg in assay [2] was not below 90%.

For `CSc1ccc(C(=O)Nc2c(Cl)cncc2Cl)c2cc(C(F)(F)F)nn12` [Example 92, 7-Methylsulfanyl-2-trifluoromethylpyrazolo[1,5-a]pyridine-4-carboxylic acid (3,5-dichloropyridin-4-yl)amide], in assay [1], the IC50 is less than 0.1 µmol/L. Moreover, the inhibition in vivo at 0.1 mg/kg in assay [2] is 30 to 70%.

Take `COc1ccc(C(=O)Nc2c(Cl)cncc2Cl)c2cc(C(C)C)nn12` [Example 32, 2-Isopropyl-7-methoxypyrazolo[1,5-a]pyridine-4-carboxylic acid (3,5-dichloropyridin-4-yl)amide]: the IC50 in assay [1] lay in the range of 0.1 to 10 µmol/L. In assay [2], the inhibition in vivo at 0.1 mg/kg fell in the range of 70 to 90%. Consider `COc1ccc(C(=O)Nc2c(Cl)c[n+](O)cc2Cl)c2cc(C#N)nn12` [Example 71, 2-Cyano-7-methoxypyrazolo[1,5-a]pyridine-4-carboxylic acid (3,5-dichloro-1-oxypyridin-4-yl)amide], for which the IC50 in assay [1] is less than 0.1 µmol/L. `O=C(Nc1c(Cl)cncc1Cl)c1ccc(CO)n2nc(C(F)(F)F)cc12` [Example 105, 7-Hydroxymethyl-2-trifluoromethylpyrazolo[1,5-a]pyridine-4-carboxylic acid (3,5-dichloropyridin-4-yl)amide]: in assay [1], the IC50 is less than 0.1 µmol/L. Further, the inhibition in vivo at 0.1 mg/kg in assay [2] was not below 90%. On the same counts, the results for `COc1ccc(C(=O)Nc2c(Cl)cncc2Cl)c2cc(C(C)=O)nn12` [Example 80, 2-Acetyl-7-methoxypyrazolo[1,5-a]pyridine-4-carboxylic acid (3,5-dichloropyridin-4-yl)amide] are less than 0.1 µmol/L and 30 to 70%.

`COc1ccc(C(=O)Nc2c(Cl)c[n+](O)cc2Cl)c2cc(C(C)C)nn12` [Example 33, 2-Isopropyl-7-methoxypyrazolo[1,5-a]pyridine-4-carboxylic acid (3,5-dichloro-1-oxypyridin-4-yl)amide]: the IC50 in assay [1] was less than 0.1 µmol/L. Further, the inhibition in vivo at 0.1 mg/kg in assay [2] was not below 90%. As for `CCc1cc2c(C(=O)Nc3c(Cl)cncc3Cl)cccn2n1` [Example 48, 2-Ethylpyrazolo[1,5-a]pyridine-4-carboxylic acid (3,5-dichloropyridin-4-yl)amide], in assay [1], the IC50 was 0.1 to 10 µmol/L.

Consider `CCc1cc2c(C(=O)Nc3c(Cl)c[n+]([O-])cc3Cl)ccc(OC)n2n1` [Example 11, 2-Ethyl-7-methoxypyrazolo[1,5-a]pyridine-4-carboxylic acid (3,5-dichloto-1-oxypyridin-4-yl)amide], for which the IC50 in assay [1] was less than 0.1 µmol/L. Besides, the inhibition in vivo at 0.3 mg/kg in assay [2] lay in the range of 70 to 90%.

For the compound `CNc1ccc(C(=O)Nc2c(Cl)cncc2Cl)c2cc(C(F)(F)F)nn12` [Example 97, 7-Methylamino-2-trifluoromethylpyrazolo[1,5-a]pyridine-4-carboxylic acid (3,5-dichloropyridin-4-yl)amide], the IC50 in assay [1] is less than 0.1 µmol/L.

On to `COc1ccc(C(=O)Nc2c(Cl)cncc2Cl)c2c(Cl)c(C(F)(F)F)nn12` [Example 118, 3-Chloro-7-methoxy-2-trifluoromethylpyrazolo[1,5-a]pyridine-4-carboxylic acid (3,5-dichloropyridin-4-yl)amide], for which the IC50 in assay [1] was less than 0.1 µmol/L.

Consider `COc1ccc(C(=O)Nc2c(Cl)cncc2Cl)c2cc(C=NO)nn12` [Example 82, 2-(Hydroxyiminomethy)-7-methoxypyrazolo[1,5-a]pyridine-4-carboxylic acid (3,5-dichloropyridin-4-yl)amide], for which the IC50 in assay [1] is less than 0.1 µmol/L. Further, in assay [2], the inhibition in vivo at 0.1 mg/kg lay within 70 to 90%. For the compound `COc1ccc(C(=O)Nc2c(Cl)cncc2Cl)c2cc(C3CC3)nn12` [Example 24, 2-Cyclopropyl-7-methoxypyrazolo[1,5-a]pyridine-4-carboxylic acid (3,5-dichloropyridin-4-yl)amide], the IC50 in assay [1] was less than 0.1 µmol/L. Also, the inhibition in vivo at 0.1 mg/kg in assay [2] was not below 90%.

With `COc1ccc(C(=O)Nc2c(Cl)c[n+]([O-])cc2Cl)c2cc(C(F)(F)F)nn12` [Example 17, 7-Methoxy-2-trifluoromethylpyrazolo[1,5-a]pyridine-4-carboxylic acid (3,5-dichloro-1-oxypyridin-4-yl)amide], the IC50 in assay [1] is less than 0.1 µmol/L. For the same compound, in assay [2], the inhibition in vivo at 0.1 mg/kg fell in the range of 30 to 70%. Take `COc1ccc(C(=O)Nc2c(Cl)c[n+]([O-])cc2Cl)c2ccnn12` [Example 41, 7-Methoxypyrazolo[1,5-a]pyridine-4-carboxylic acid (3,5-dichloro-1-oxypyridin-4-yl)amide]: the IC50 in assay [1] was less than 0.1 µmol/L. Further, in assay [2], the inhibition in vivo at 0.3 mg/kg was in the range of 30 to 70%. Turning to `COc1ccc(C(=O)Nc2c(Cl)cncc2Cl)c2cc(C(=O)O)nn12` [Example 81, 4-(3,5-Dichloropyridin-4-ylcarbamoyl)-7-methoxypyrazolo[1,5-a]pyridine-2-carboxylic acid], the IC50 in assay [1] was in the range of 0.1 to 10 µmol/L. Turning to `COc1ccc(C(=O)Nc2c(Cl)cc(Cl)cc2Cl)c2cc(C(F)(F)F)nn12` [Example 18, 7-Methoxy-2-trifluoromethylpyrazolo[1,5-a]pyridine-4-carboxylic acid (2,4,6-trichlorophenyl)amide], the IC50 in assay [1] was in the range of 0.1 to 10 µmol/L. As to `COCc1cc2c(C(=O)Nc3c(Cl)c[n+](O)cc3Cl)ccc(OC)n2n1` [Example 77, 7-Methoxy-2-methoxymethylpyrazolo[1,5-a]pyridine-4-carboxylic acid (3,5-dichloro-1-oxypyridin-4-yl)amide], the IC50 in assay [1] was less than 0.1 µmol/L. Also, the inhibition in vivo at 0.3 mg/kg in assay [2] is 30 to 70%.

For `CC(=O)c1ccc(C(=O)Nc2c(Cl)cncc2Cl)c2cc(C(F)(F)F)nn12` [Example 108, 7-Acetyl-2-trifluoromethylpyrazolo[1,5-a]pyridine-4-carboxylic acid (3,5-dichloropyridin-4-yl)amide], the IC50 in assay [1] was less than 0.1 µmol/L.

`COCc1ccc(C(=O)Nc2c(Cl)cncc2Cl)c2cc(C(F)(F)F)nn12` [Example 115, 7-Methoxymethyl-2-trifluoromethylpyrazolo[1,5-a]pyridine-4-carboxylic acid (3,5-dichloropyridin-4-yl)amide]: the IC50 in assay [1] is less than 0.1 µmol/L. Still for that read-out and setting: the result for `COc1ccc(C(=O)Nc2c(Cl)cncc2Cl)c2c(O)c(C(F)(F)F)nn12` [Example 119, 3-Hydroxy-7-methoxy-2-trifluoromethylpyrazolo[1,5-a]pyridine-4-carboxylic acid (3,5-dichloropyridin-4-yl)amide] reads 0.1 to 10 µmol/L. In the case of `CCOc1ccc(C(=O)Nc2c(Cl)cncc2Cl)c2cc(C(F)F)nn12` [Example 59, 2-Difluoromethyl-7-ethoxypyrazolo[1,5-a]pyridine-4-carboxylic acid (3,5-dichloropyridin-4-yl)amide], the IC50 in assay [1] is less than 0.1 µmol/L.
